Results published in patent US9669031B2, “MNK inhibitors and methods related thereto” (eFFECTOR Therapeutics, Inc., priority 2014, dated 2017).
Counter-ions that a name gives are not always drawn.

What was measured:
Mnk1 = Mnk1 (Homo sapiens (Human), UniProt Q9BUB5); assay: biochemical
[1] = female, Balb/c, mouse, in vivo, po, 10 mg/kg
in vivo = settings: female, Balb/c, mouse, po, 10 mg/kg; for AUC(0-t): AUClast; for half-life: T½
[2] = Pharmacokinetics in Balb/c mice, single intravenous bolus administration; type: in vivo; settings: intravenous bolus 1 mg/kg, formulation 10DMA/15EtOH/35PEG300/40D5W, gender F; for AUC(0-inf) / half-life / Vd: female, mouse, plasma; for AUC(0-inf): read-out: AUCINF_obs; for half-life: read-out: T½ (converted); for Vd: read-out: Vss
Mnk2 = Mnk2 (Homo sapiens (Human), UniProt Q9HBH9); assay: biochemical
Chain of Mnk2 (Q9HBH9 whole entry): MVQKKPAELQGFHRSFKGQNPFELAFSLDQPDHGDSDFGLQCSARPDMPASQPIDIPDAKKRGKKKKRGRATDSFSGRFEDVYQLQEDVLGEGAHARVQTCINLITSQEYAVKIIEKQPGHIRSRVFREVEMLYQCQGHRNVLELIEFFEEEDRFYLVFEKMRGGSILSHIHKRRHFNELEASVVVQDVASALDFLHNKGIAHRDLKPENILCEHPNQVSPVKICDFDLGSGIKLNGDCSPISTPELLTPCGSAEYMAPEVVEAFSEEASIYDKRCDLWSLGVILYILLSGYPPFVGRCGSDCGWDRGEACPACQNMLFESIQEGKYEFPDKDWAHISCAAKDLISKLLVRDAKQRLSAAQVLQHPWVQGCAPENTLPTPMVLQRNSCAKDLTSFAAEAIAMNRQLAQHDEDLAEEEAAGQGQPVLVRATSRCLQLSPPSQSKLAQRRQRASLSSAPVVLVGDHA

Chain of Mnk1 (Q9BUB5 whole entry): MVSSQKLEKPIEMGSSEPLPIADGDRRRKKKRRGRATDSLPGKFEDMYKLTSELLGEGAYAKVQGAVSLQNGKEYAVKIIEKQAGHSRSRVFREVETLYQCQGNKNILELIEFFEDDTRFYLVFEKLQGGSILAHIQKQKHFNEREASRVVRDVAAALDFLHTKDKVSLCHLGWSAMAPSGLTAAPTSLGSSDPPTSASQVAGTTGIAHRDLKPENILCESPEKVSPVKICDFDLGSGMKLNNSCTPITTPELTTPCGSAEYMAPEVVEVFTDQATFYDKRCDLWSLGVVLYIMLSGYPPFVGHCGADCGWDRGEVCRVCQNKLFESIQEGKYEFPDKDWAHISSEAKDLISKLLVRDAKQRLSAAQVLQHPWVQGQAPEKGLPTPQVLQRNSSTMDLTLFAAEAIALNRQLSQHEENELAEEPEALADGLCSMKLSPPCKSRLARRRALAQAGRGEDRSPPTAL

IC50 (Mnk1) [nM] | Cmax (in vivo) [ng/mL] | Tmax (in vivo) [h] | half-life (in vivo) [h] | Compound | also measured
< 10 | 36 | 1 | 2.21 | Cl.O=C1NC2(CCCNC2)n2c1c(Cl)cc(Nc1cc(NC(=O)C3CC3)ncn1)c2=O (centres unmarked) [Cpd. No. 60, N-(6-((8-chloro-1,5-dioxo-1,5-dihydro-2H-spiro[imidazo[1,5-a]pyridine-3,3′-piperidin]-6-yl)amino)pyrimidin-4-yl)cyclopropanecarboxamide hydrochloride] | Tlast [1]: 4 h; AUC(0-t) (in vivo): 78.2 ng·h/mL
< 10 |  |  |  | O=C1NC2(CNC2)n2c1c(Cl)cc(Nc1cc(NC(=O)C3CC3)ncn1)c2=O [Cpd. No. 86, N-[6-[(8-chloro-1,5-dioxo-spiro[2H-imidazo[1,5-a]pyridine-3,3′-azetidine]-6-yl)amino]pyrimidin-4-yl]cyclopropanecarboxamide hydrochloride] | 
 | 810 | 0.5 | 2.97 | CC1(C)NC(=O)c2c(Cl)cc(Nc3cc(N)ncn3)c(=O)n21 [Cpd. No. 88, 6-[(6-aminopyrimidin-4-yl)amino]-8-chloro-3,3-dimethyl-2H-imidazo[1,5-a]pyridine-1,5-dione] | AUC(0-inf) [2]: 273 ng·h/mL; half-life [2]: 1.3 h; Vd [2]: 3.03 L/kg; Cl_obs [2]: 61 mL/min/kg; Tlast [1]: 8 h; AUC(0-t) (in vivo): 2040 ng·h/mL
< 10 |  |  |  | Cc1cc(Nc2cc(N)ncn2)c(=O)n2c1C(=O)NC2(C)c1cccc(Cl)c1 (centres unmarked) [Cpd. No. 92, 6-[(6-aminopyrimidin-4-yl)amino]-3-(3-chlorophenyl)-3,8-dimethyl-2H-imidazo[1,5-a]pyridine-1,5-dione] | 
< 10 | 1800 | 0.5 | 2 | Nc1cc(Nc2cc(Cl)c3n(c2=O)C2(CCCC2)NC3=O)ncn1 [Cpd. No. 94, 6-[(6-aminopyrimidin-4-yl)amino]-8-chloro-spiro[2H-imidazo[1,5-a]pyridine-3,1′-cyclopentane]-1,5-dione] | AUC(0-inf) [2]: 812 ng·h/mL; half-life [2]: 5.81 h; Vd [2]: 12.2 L/kg; Cl_obs [2]: 20.5 mL/min/kg; Tlast [1]: 8 h; AUC(0-t) (in vivo): 6070 ng·h/mL
 | 1200 | 0.3 | 3.1 | Cc1cc(Nc2cc(N)ncn2)c(=O)n2c1C(=O)NC21CCCC1.Cl [Cpd. No. 98, 6-[(6-aminopyrimidin-4-yl)amino]-8-methyl-spiro[2H-imidazo[1,5-a]pyridine-3,1′-cyclopentane]-1,5-dione hydrochloride] | AUC(0-inf) [2]: 358 ng·h/mL; half-life [2]: 1.79 h; Vd [2]: 3.56 L/kg; Cl_obs [2]: 46.6 mL/min/kg; Tlast [1]: 8 h; AUC(0-t) (in vivo): 4180 ng·h/mL
< 10 | 400 | 0.3 | 1.6 | Cl.Nc1cc(Nc2cc(Cl)c3n(c2=O)C2(CCC(F)(F)CC2)NC3=O)ncn1 [Cpd. No. 99, 6-[(6-aminopyrimidin-4-yl)amino]-8-chloro-4′,4′-difluoro-spiro[2H-imidazo[1,5-a]pyridine-3,1′-cyclohexane]-1,5-dione hydrochloride] | Tlast [1]: 8 h; AUC(0-t) (in vivo): 1380 ng·h/mL; IC50 (Mnk2): < 10 nM
< 10 |  |  |  | Cc1cc(Nc2cc(N)ncn2)c(=O)n2c1C(=O)NC2(C)c1cccc(F)c1 (centres unmarked) [Cpd. No. 101, 6-((6-aminopyrimidin-4-yl)amino)-3-(3-fluorophenyl)-3,8-dimethyl-2,3-dihydroimidazo[1,5-a]pyridine-1,5-dione] | 
 | 1800 | 0.3 | 1.4 | Cc1cc(Nc2cc(N)ncn2)c(=O)n2c1C(=O)NC2(C)C.Cl [Cpd. No. 102, 6-((6-aminopyrimidin-4-yl)amino)-3,3,8-trimethyl-2,3-dihydroimidazo[1,5-a]pyridine-1,5-dione hydrochloride] | IC50 (Mnk2): < 10 nM
< 10 |  |  |  | Cc1cc(Nc2cc(N)ncn2)c(=O)n2c1C(=O)NC21CCC(F)(F)CC1 [Cpd. No. 103, 6-[(6-aminopyrimidin-4-yl)amino]-4′,4′-difluoro-8-methyl-spiro[2H-imidazo[1,5-a]pyridine-3,1′-cyclohexane]-1,5-dione hydrochloride] | 
< 10 |  |  |  | CC(C)(C)C1(C)NC(=O)c2c(Cl)cc(Nc3cc(N)ncn3)c(=O)n21 (centres unmarked) [Cpd. No. 105, 6-[(6-aminopyrimidin-4-yl)amino]-3-tert-butyl-8-chloro-3-methyl-2H-imidazo[1,5-a]pyridine-1,5-dione hydrochloride] | 
 | 950 | 1 | 5.3 | Cc1cc(Nc2cc(N)ncn2)c(=O)n2c1C(=O)NC21CCCCC1 [Cpd. No. 107, 6′-((6-aminopyrimidin-4-yl)amino)-8′-methyl-2′H-spiro[cyclohexane-1,3′-imidazo[1,5-a]pyridine]-1′,5′-dione] | AUC(0-inf) [2]: 502 ng·h/mL; half-life [2]: 2.91 h; Vd [2]: 3.21 L/kg; Cl_obs [2]: 33.2 mL/min/kg; Tlast [1]: 8 h; AUC(0-t) (in vivo): 2760 ng·h/mL
< 10 | 44 | 0.3 | 0.3 | Cl.Cl.Nc1cc(Nc2cc(Cl)c3n(c2=O)C2(CCNCC2)NC3=O)ncn1 [Cpd. No. 108, 6-((6-aminopyrimidin-4-yl)amino)-8-chloro-2H-spiro[imidazo[1,5-a]pyridine-3,4′-piperidine]-1,5-dione dihydrochloride] | 
< 10 |  |  |  | Nc1cc(Nc2cc(Cl)c3n(c2=O)C2(CCc4ccc(Cl)cc42)NC3=O)ncn1 (centres unmarked) [Cpd. No. 111, 6-[(6-aminopyrimidin-4-yl)amino]-6′,8-dichloro-spiro[2H-imidazo[1,5-a]pyridine-3,1′-indane]-1,5-dione hydrochloride] | 
 |  |  |  | CC1(C2CCCC2)N(C#N)C(=O)c2ccc(Nc3cc(N)ncn3)c(=O)n21 (centres unmarked) [Cpd. No. 118, 6-[(6-aminopyrimidin-4-yl)amino]-3-cyclopentyl-3-methyl-1,5-dioxo-imidazo[1,5-a]pyridine-2-carbonitrile] | IC50 (Mnk2): < 10 nM
< 10 |  |  |  | Cc1cc(Nc2cc(N)ncn2)c(=O)n2c1C(=O)NC21CCCN(C)C1 (centres unmarked) [Cpd. No. 170, 6-[(6-aminopyrimidin-4-yl)amino]-1′,8-dimethyl-spiro[2H-imidazo[1,5-a]pyridine-3,3′-piperidine]-1,5-dione] | 

Compound | IC50 (Mnk1) [nM] | Cmax (in vivo) [ng/mL] | Tmax (in vivo) [h] | half-life (in vivo) [h] | also measured
O=C1NC2(CCNC2)n2c1ccc(Nc1ccncn1)c2=O (centres unmarked) [Cpd. No. 26, 6-(pyrimidin-4-ylamino)-1H-spiro[imidazo[1,5-a]pyridine-3,3′-pyrrolidine]-1,5(2H)-dione] | 10 to 100 |  |  |  | 
CC1(c2cc(F)cc(Cl)c2)NC(=O)c2ccc(Nc3ccncn3)c(=O)n21 (centres unmarked) [Cpd. No. 28, 3-(3-chloro-5-fluorophenyl)-3-methyl-6-(pyrimidin-4-ylamino)-2,3-dihydroimidazo[1,5-a]pyridine-1,5-dione] | 10 to 100 |  |  |  | 
CC1(c2cc(Cl)cc(Cl)c2)NC(=O)c2ccc(Nc3ccncn3)c(=O)n21 (centres unmarked) [Cpd. No. 33, 3-(3,5-dichlorophenyl)-3-methyl-6-(pyrimidin-4-ylamino)-2,3-dihydroimidazo[1,5-a]pyridine-1,5-dione] | 10 to 100 |  |  |  | 
O=c1c(Nc2ccncn2)ccc2n1C1(CCCCC1)NC2=S [Cpd. No. 131, 6′-(pyrimidin-4-ylamino)-1′-thioxo-1′,2′-dihydro-5′H-spiro[cyclohexane-1,3′-imidazo[1,5-a]pyridin]-5′-one] | 10 to 100 |  |  |  | 
CC1(C)NC(=O)c2c(Cl)cc(Nc3ncnc4cnccc34)c(=O)n21 [Cpd. No. 165, 8-chloro-3,3-dimethyl-6-(pyrido[3,4-d]pyrimidin-4-ylamino)-2,3-dihydroimidazo[1,5-a]pyridine-1,5-dione] | 10 to 100 |  |  |  | 
